Reference: patent US20200038478A1, “POLYPEPTIDE AND COMPOSITION THEREOF FOR TREATING DISEASES OF METABOLIC SYSTEM” (WUHAN GRECTECH CO., LTD., priority 2017, published 2020)
Counter-ions that a name gives are not always drawn.

Legend:
[1] = system: mouse models of type 2 diabetes; assay: Insulin tolerance test after 4-week treatment (Example 20); format: in vivo, KK mice; details: insulin 0.5 U/mL at 0.05 ml/10 g s.c. one hour after last dose of 4-week gavage treatment
diabetic mice [2] = assay: Fasting blood glucose in STZ diabetic mice, intragastric 4 weeks (Example 25); format: in vivo, BALB/c mice
Experimental: (§1) Male BALB/c mice at 7 weeks of age, after adapting to the environment for 2 days, were randomly divided into normal control group (10 mice) and model-to-be established groups (70 mice). The mice in the normal control group were fed with normal diet. The mice in the model-to-be established groups were fed with high-fat diet, intraperitoneally injected with streptozotocin (STZ) in citrate buffer at a dose of 100 mg/kg, and then the diabetic mouse model was established. […] The mice with the blood glucouse level higher than 11.0 mmol/L and at the same time having polydipsia and polyuria were selected out as the diabetic mice. Then the selected diabetic mice were randomly divided into four groups: model control group, metformin group, Composition E group and Composition F group, 10 mice in each group. The mice were intragastric administered with the corresponding drugs: normal saline (100 μL for each mouse), metformin (0.05 ml/10 g), Composition E (0.05 ml/10 g) and Composition F (0.05 ml/10 g), respectively, once a day for 4 weeks. The mice in normal control group were administered with normal saline (100 μL for each mouse). The diabetic mice were fed with high-fat diet continuously and drank water freely, and the mice in normal control group were fed with normal diet and drank water freely.

[3] = system: mouse models of type 2 diabetes; assay: Blood glucose during 4-week gavage treatment, polypeptide mixture vs metformin (Example 20); details: KK mice, metformin 20 mg/mL, each 0.05 ml/10 g
[4] = system: mouse models of type 2 diabetes; assay: Pancreas weight, H&E staining and immunohistochemistry after 4-week treatment (Example 20); format: in vivo; details: KK mice sacrificed after treatment for four weeks by gavage
Text: 2.5 All mice were sacrificed after treatment for four weeks, and the pancreatic tissues were weighed, stained with H&E and detected by immunohistochemistry.

diabetic mice [5] = assay: Serum TC and TG in STZ diabetic mice after 4 weeks (Example 25); format: in vivo; details: after 4 weeks intragastric treatment, STZ + high-fat diet BALB/c mice
Experimental: as §1, with “The diabetic mice were fed with high-fat diet continuously and drank water freely, and the mice in normal control group were fed with normal diet and drank water freely.” left out
After the end of experiment, blood samples were collected from the eyeballs of the mice, serum was separated and the serum levels of TC and TG were detected.

[6] = system: mouse models of type 2 diabetes; assay: Hypoglycemic activity of solid compositions, STZ/high-fat diet diabetic mice, gavage 4 weeks (Example 24); format: in vivo; details: fasting; STZ + high-fat diet C57BL/6 mice; gavage once a day; compositions 2 mg/mL polypeptide O, metformin 20 mg/mL (100 mg/Kg), each 0.05 ml/10 g
Experimental: Male C57BL/6 mice at 4 weeks of age, after adapting to the environment for 5 days, were randomly divided into normal control group (10 mice) and model-to-be established groups (90 mice). The mice in the normal control group were fed with normal diet. The mice in the model-to-be established groups were fed with high-fat diet and intraperitoneally injected with streptozotocin (STZ) in citrate buffer at a dose of 45 mg/kg. After injection, the mice were fasted for 1.5 hours and injected for 5 consecutive days, and then the diabetic mouse model was established. […] The mice with the fasting blood glucouse level between 10.0 and 20.0 mmol/L and at the same time having polydipsia and polyuria were selected out as the diabetic mice. Then, the selected diabetic mice were randomly divided into five groups: model control group, metformin group, Composition D group, […], and […], 10 mice in each group. The mice were administered by gavage with the corresponding drug: normal saline (100 μL for each mouse), metformin (0.05 ml/10 g), composition D (0.05 ml/10 g), composition E (0.05 ml/10 g) and composition F (0.05 ml/10 g), respectively, once a day for 4 weeks. The mice in normal control group were administered with normal saline (100 μL for each mouse). The diabetic mice were fed with high-fat diet continuously and drank water freely, and the mice in normal control group were fed with normal diet and drank water freely.

[7] = system: mouse models of type 2 diabetes; assay: Oral glucose tolerance test after 4-week treatment (Example 20); format: in vivo, KK mice; details: glucose 2.5 g/kg by gavage one hour after last dose of 4-week gavage treatment
Experimental: 2.4 Oral glucose tolerance test: one hour after the last administration, the remaining mice in the diabetic model control group, metformin treatment group, polypeptide treatment group and normal control group (10 mice in each group) after the selection in experiment 2.3 were administered by gavage with glucose at a dose of 2.5 g/kg.

[8] = system: mouse models of type 2 diabetes; assay: Polypeptide mixture vs metformin, mouse models of type 2 diabetes, single gavage (Example 17); details: KK mice, polypeptide 2 mg/mL, metformin 20 mg/mL, each 0.05 ml/10 g
[9] = fasting, STZ (100 mg/kg) + high-fat diet BALB/c mice, intragastric once a day, compositions 2 mg/mL polypeptide O, metformin 200 mg/mL (1000 mg/kg), each 0.05 ml/10 g
[10] = gavage once a day, polypeptide tablet suspension 2 mg/ml

CN(C)C(=N)N=C(N)N [Metformin, Metformin hydrochloride]
0 min blood glucose level [1]: 6.8 ± 0.8 mmol/L | 30 min blood glucose level [1]: 4.1 ± 1.1 mmol/L | 60 min blood glucose level [1]: 4.8 ± 1.2 mmol/L | 90 min blood glucose level [1]: 5.4 ± 0.7 mmol/L | 120 min blood glucose level [1]: 6.2 ± 1.3 mmol/L | Blood glucose level after four weeks (diabetic mice [2]; [9]): 8.0 ± 0.7 mmol/L | Blood glucose level after one week (diabetic mice [2]; [9]): 12.6 ± 0.7 mmol/L | Blood glucose level after three weeks (diabetic mice [2]; [9]): 12.3 ± 1.0 mmol/L | Blood glucose level after two weeks (diabetic mice [2]; [9]): 13.5 ± 0.7 mmol/L | control of blood glucose (conclusion) (diabetic mice [2]; metformin at ultra-high-dose 1000 mg/kg): could not control blood glucose effectively | Initial blood glucose level ([3]; gavage once a day for 4 weeks, polypeptide tablets (mixture:hydroxypropyl methylcellulose 8:2) suspension 2 mg/ml, baseline): 9.3 ± 1.1 mmol/L | Blood glucose level after four weeks [3, 10]: 6.8 ± 0.8 mmol/L | Blood glucose level after one week [3, 10]: 8.1 ± 1.1 mmol/L | Blood glucose level after three weeks [3, 10]: 7.3 ± 1.2 mmol/L | Blood glucose level after two weeks [3, 10]: 7.2 ± 0.9 mmol/L | Pancreas weight/body weight (%) [4]: 1.32 ± 0.06% | TC (diabetic mice [5]): 2.32 ± 0.78 mmol/L | TG (diabetic mice [5]): 1.87 ± 1.26 mmol/L | Blood glucose level after four weeks [6]: 9.2 ± 0.9 mmol/L | Blood glucose level after one week [6]: 11.9 ± 0.6 mmol/L | Blood glucose level after three weeks [6]: 11.3 ± 1.2 mmol/L | Blood glucose level after two weeks [6]: 13.2 ± 0.5 mmol/L | 0 min blood glucose level [7]: 6.8 ± 0.8 mmol/L | 30 min blood glucose level [7]: 16.8 ± 4.1 mmol/L | 60 min blood glucose level [7]: 13.4 ± 2.4 mmol/L | 90 min blood glucose level [7]: 10.6 ± 3.2 mmol/L | 120 min blood glucose level [7]: 8.2 ± 1.7 mmol/L | Blood glucose level at 15 min after administration [8]: 12.6 ± 1.2 mmol/L | Blood glucose level at 30 min after administration [8]: 10.4 ± 0.9 mmol/L | Blood glucose level at 45 min after administration [8]: 9.3 ± 0.8 mmol/L | Blood glucose level at 60 min after administration [8]: 8.2 ± 0.5 mmol/L | Blood glucose level prior to administration ([8]; baseline): 14.2 ± 1.1 mmol/L
